# Data taken from patent US11860169B2, “Method of treating and prognosing scoliotic patient subgroups” (Chu Sainte-Justine, priority 2013, dated 2024).
# “Also recorded” adds a separate entry of the source.
# How the values were obtained:
# [1] = test system: Gi-mediated cell signaling; test: Gi-mediated cellular response measured by cellular impedance (CellKey system) in osteoblasts treated with OPN, HA or antibodies; format: cell-based, human; details: LPA stimulation
# Experimental: Gi-mediated cellular response in the presence of increasing amounts of rOPN was measured by cellular impedance using the CellKey™ system (Akoume et al., 2010; and Akoume et al., 2013 (J. Vis. Exp.)) in functional groups FG1, FG2 and FG3;
# Osteoblasts from healthy subjects and AIS patients of each endophenotype (FG1, FG2 and FG3) were treated with vehicle, OPN (500 ng/ml) or HA (10 μM). The Gi-mediated cellular response in the presence of increasing amounts of LPA was measured by cellular impedance using the CellKey™ system;
# (§1) CD44 activity (A) or expression (B) was inhibited in osteoblasts from control, FG1, FG2 and FG3 patients and the effect on OPN-dependent inhibition of Gi-mediated cell signaling was monitored using the CellKey™ system following stimulation with LPA.
# Antibodies against integrins β1, β3 and β5 reverse the effect of OPN on Gi-mediated response in FG2 and FG3 subjects only, while blockade of CD44 further potentiates the effect of OPN.
# (§2) The variation in Gi-mediated cell signaling in response to OPN in each functional group (FG1, FG2 and FG3) was studied. FIGS. 20 and 21 show the response to OPN (increasing doses) on osteoblasts isolated from patients classified into functional groups FG1, FG2 and FG3. […] Furthermore, MC3T3-E1 cells were used to check the effect of the knockdown of OPN and its receptors. MC3T3-E1 osteoblasts cells were transiently transfected in serum-free medium, using Lipofectamine™ RNAiMAX reagent (Invitrogen) according to the manufacturers instructions and functional experiments were performed 48 h post transfection.
# [2] = test system: Gi-mediated cell signaling; test: Gi-mediated cellular response measured by cellular impedance (CellKey system) after siRNA knockdown in osteoblasts; format: cell-based; details: for Effect of OPN knock down on Gi-mediated transduction: 48 h post transfection; for Effect of siRNA on OPN-dependent change of Gi-mediated cell signaling: in presence of OPN
# Experimental: Gi-mediated cellular response in the presence siRNAs against rOPN was measured by cellular impedance using the CellKey™ system (Akoume et al., 2010; and Akoume et al., 2013 (J. Vis. Exp.)) in functional groups FG1, FG2 and FG3;
# as §1
# SiRNAs against integrins β1, β3 and β5 reversed the effect of OPN on Gi-mediated response while blockade of CD44 further potentiated the effect of OPN.
# as §2
# MC3T3-E1 cells were also used to check the effect of the knockdown of OPN's receptors by RNAi. Experimental conditions were as described for Example 5. The sequence of RNA oligonucleotides used for the knockdowns are: integrin β1 (CCU MG UCA GCA GUA GGA ACA UUA U (SEQ ID NO: 15)), integrin β3 (CCUCCAGCUCAUUGUUGAUGCUUAU (SEQ ID NO: 16)); integrin β5 ([…], HSS-105572, Life technologies (SEQ ID NO: 17), […], HSS-105573, Life technologies (SEQ ID NO: 18); and […], HSS-179984, life technologies, (SEQ ID NO: 19)) and CD44 (GM CM GGA GUC GUC AGA MC UCC A (SEQ ID NO: 20)).
# [3] = osteoblasts from FG1 AIS subjects, increasing rOPN, or OPN 500 ng/ml or HA 10 μM
# [4] = osteoblasts from FG2 AIS subjects, increasing rOPN, or OPN 500 ng/ml or HA 10 μM
# [5] = osteoblasts from FG3 AIS subjects, increasing rOPN, or OPN 500 ng/ml or HA 10 μM
# [6] = osteoblasts from control (healthy) subjects, OPN 500 ng/ml or HA 10 μM
# [7] = osteoblasts from control subjects
Substance,"Effect on Gi-mediated cellular response [1, 3]","Effect on Gi-mediated cellular response [1, 4]","Effect on Gi-mediated cellular response [1, 5]","Effect on Gi-mediated cellular response [1, 6]",Effect of siRNA on OPN-dependent change of Gi-mediated cell signaling ([2]; osteoblasts from FG1 subjects),Effect of siRNA on OPN-dependent change of Gi-mediated cell signaling ([2]; osteoblasts from FG2 subjects),Effect of siRNA on OPN-dependent change of Gi-mediated cell signaling ([2]; osteoblasts from FG3 subjects),"Effect of siRNA on OPN-dependent change of Gi-mediated cell signaling [2, 7]",also measured
Hyaluronic acid [HA],increases the Gi-mediated cellular response,decreases the Gi-mediated response,decreases the Gi-mediated response,decreases the Gi-mediated response,,,,,
"OPN siRNA: siRNA for knock down of OPN expression: CCA CAG CCA CM GCA GUC CAG AUU A (CCACAGCCACAAGCAGUCCAGAUUA; listed as RNA, chemistry not fully specified)",,,,,,,,,Effect of OPN knock down on Gi-mediated transduction ([2]; FG1): tends to decrease the response; Effect of OPN knock down on Gi-mediated transduction ([2]; FG2): increases Gi-mediated transduction; Effect of OPN knock down on Gi-mediated transduction ([2]; FG3): increases Gi-mediated transduction
"OPN: osteopontin, encoded by SPP1 (Gene ID 6696); recombinant rOPN added to osteoblasts",enhances Gi signaling,aggravates the impairment,aggravates the impairment,decreases the Gi-mediated response,,,,,
"siRNA against CD44: RNA oligonucleotide for CD44 knockdown: GM CM GGA GUC GUC AGA MC UCC A (GAACAAGGAGUCGUCAGAAACUCCA; listed as RNA, chemistry not fully specified)",,,,,further increased Gi-mediated cell signaling,further decreased Gi-mediated cell signaling; also recorded: further reduced Gi-mediated signaling,further decreased Gi-mediated cell signaling; also recorded: further reduced Gi-mediated signaling,further decreased Gi-mediated cell signaling; also recorded: further reduced Gi-mediated signaling,
"siRNA against integrin β1: RNA oligonucleotide for integrin β1 knockdown: CCU MG UCA GCA GUA GGA ACA UUA U (CCUAAGUCAGCAGUAGGAACAUUAU; listed as RNA, chemistry not fully specified)",,,,,reduced (blocked) the increase in Gi-mediated response induced by OPN,can be reversed,can be reversed,can be reversed,
"siRNA against integrin β3: RNA oligonucleotide for integrin β3 knockdown: CCUCCAGCUCAUUGUUGAUGCUUAU (CCUCCAGCUCAUUGUUGAUGCUUAU; listed as RNA, chemistry not fully specified)",,,,,reduced (blocked) the increase in Gi-mediated response induced by OPN,can be reversed,can be reversed,can be reversed,
